Measurements: US9963467B2, “Boronic acid derivatives and therapeutic uses thereof” (Rempex Pharmaceuticals, Inc., priority 2014, dated 2018)

Columns and labels:
Pa AmpC = Pa AmpC (Pseudomonas aeruginosa, UniProt P24735); assay: Ki, nitrocefin cleavage by purified enzyme, Pa AmpC; assay type: biochemical; conditions: nitrocefin reporter substrate; read-out: Ki (Pa AmpC, NCF)
Protocol: Ki values of inhibition of purified class A, C and D enzymes were determined spectrophotometrically using nitrocefin as reporter substrate. Purified enzymes were mixed with various concentrations of inhibitors in reaction buffer and incubated for 10 min at room temperature. Nitrocefin was added and substrate cleavage profiles were recorded at 490 nm every 10 sec for 10 min. These experiments confirmed that the described compounds are inhibitors with a broad-spectrum of activity towards various β-lactamases.

OXA-48 = OXA-48 (Klebsiella pneumoniae, UniProt Q6XEC0); assay: Ki, nitrocefin cleavage by purified enzyme, OXA-48; assay type: biochemical; conditions: nitrocefin reporter substrate; read-out: Ki (OXA-48, NCF)
In short: (§1)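 10 min RT preincubation, enzyme with inhibitor series in reaction buffer. Substrate nitrocefin; kinetic read 490 nm, 10 sec intervals, 10 min total.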

KP1009 (CTX-M-15) [1] = assay: Tigemonam potentiation (MPC@4), KP1009; assay type: cell-based; conditions: BLI with tigemonam at 4 μg/mL
SHV-12 = SHV-12 (Klebsiella pneumoniae, UniProt P0AD64, E235K/G234S/L31Q); assay: Ki, nitrocefin cleavage by purified enzyme, SHV-12; assay type: biochemical; conditions: nitrocefin reporter substrate; read-out: Ki (SHV-12, NCF)
In short: as §1

ec308 (SHV-5) = assay: Tigemonam potentiation (MPC@4), ec308; assay type: cell-based
KP1004 (KPC-2) [2] = assay: Biapenem potentiation (MPC@1), KP1004; conditions: BLI with biapenem at 1 μg/mL
ec302 (TEM-10) [3] = assay: Aztreonam potentiation (MPC@4), ec302; assay type: cell-based; conditions: BLI with aztreonam at 4 μg/mL
CTX-M-14 = CTX-M-14 (Escherichia coli, UniProt Q9L5C7); assay: Ki, nitrocefin cleavage by purified enzyme, CTX-M-14; assay type: biochemical; conditions: nitrocefin reporter substrate; read-out: Ki (CTX-M-14, NCF)
In short: as §1

KP1086 (OXA-48) = assay: Biapenem potentiation (MPC@1), KP1086; conditions: BLI with biapenem at 1 μg/mL
KP1009 (CTX-M-15) [4] = assay: organism not typed; assay type: cell-based
P99 = P99 (Enterobacter cloacae, UniProt P05364); assay: Ki, nitrocefin cleavage by purified enzyme, P99; assay type: biochemical; conditions: nitrocefin reporter substrate; read-out: Ki (P99, NCF)
In short: as §1

ECL1002 [5] = assay: Tigemonam potentiation (MPC@4), ECL1002; assay type: cell-based; conditions: BLI with tigemonam at 4 μg/mL
EC1010 (CMY-6) [6] = assay: organism not typed; assay type: cell-based
KP1010 (SHV-12) = assay: Tigemonam potentiation (MPC@4), KP1010; assay type: cell-based
ECL1002 [7] = assay: Aztreonam potentiation (MPC@4), ECL1002; assay type: cell-based; conditions: BLI with aztreonam at 4 μg/mL
KP1004 (KPC-2) [8] = assay: Aztreonam potentiation (MPC@4), KP1004; assay type: cell-based; conditions: BLI with aztreonam at 4 μg/mL
KP1005 (CTX-M-14) = assay: Tigemonam potentiation (MPC@4), KP1005; assay type: cell-based; conditions: BLI with tigemonam at 4 μg/mL
KPC-2 = KPC-2 (Klebsiella pneumoniae, UniProt Q9F663); assay: Ki, nitrocefin cleavage by purified enzyme, KPC-2; assay type: biochemical; conditions: nitrocefin reporter substrate; read-out: Ki (KPC-2, NCF)
In short: as §1

EC1010 (CMY-6) [9] = assay: Tigemonam potentiation (MPC@4), EC1010; assay type: cell-based; conditions: BLI with tigemonam at 4 μg/mL
ec302 (TEM-10) [10] = assay: Tigemonam potentiation (MPC@4), ec302; assay type: cell-based

Chain of SHV-12 (P0AD64 22-286 L31Q/G234S/E235K): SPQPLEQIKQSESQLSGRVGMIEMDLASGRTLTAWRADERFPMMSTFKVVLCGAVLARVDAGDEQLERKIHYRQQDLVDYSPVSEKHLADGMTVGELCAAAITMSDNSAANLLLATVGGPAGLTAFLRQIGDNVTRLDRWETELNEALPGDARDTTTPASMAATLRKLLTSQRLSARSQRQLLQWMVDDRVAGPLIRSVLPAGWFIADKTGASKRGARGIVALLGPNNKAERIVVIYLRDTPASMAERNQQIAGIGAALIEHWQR
Chain of Pa AmpC (P24735 27-397): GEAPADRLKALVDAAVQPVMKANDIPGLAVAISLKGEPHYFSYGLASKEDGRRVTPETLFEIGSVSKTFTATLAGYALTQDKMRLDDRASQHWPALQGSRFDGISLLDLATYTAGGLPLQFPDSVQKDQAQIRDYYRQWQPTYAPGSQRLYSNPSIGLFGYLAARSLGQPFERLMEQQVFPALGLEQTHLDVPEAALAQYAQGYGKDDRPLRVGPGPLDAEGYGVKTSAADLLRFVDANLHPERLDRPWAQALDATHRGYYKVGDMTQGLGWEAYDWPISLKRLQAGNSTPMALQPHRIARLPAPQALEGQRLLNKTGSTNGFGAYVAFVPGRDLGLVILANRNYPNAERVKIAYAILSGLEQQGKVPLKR
Chain of OXA-48 (Q6XEC0 23-265, looked up, species assumed): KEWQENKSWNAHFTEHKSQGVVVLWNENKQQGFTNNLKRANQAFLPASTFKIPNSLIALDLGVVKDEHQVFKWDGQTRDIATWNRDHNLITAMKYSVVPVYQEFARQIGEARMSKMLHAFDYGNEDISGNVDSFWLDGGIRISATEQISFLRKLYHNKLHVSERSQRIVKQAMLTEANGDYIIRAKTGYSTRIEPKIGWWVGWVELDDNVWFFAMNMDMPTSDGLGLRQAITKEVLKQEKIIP
Chain of P99 (P05364 21-381): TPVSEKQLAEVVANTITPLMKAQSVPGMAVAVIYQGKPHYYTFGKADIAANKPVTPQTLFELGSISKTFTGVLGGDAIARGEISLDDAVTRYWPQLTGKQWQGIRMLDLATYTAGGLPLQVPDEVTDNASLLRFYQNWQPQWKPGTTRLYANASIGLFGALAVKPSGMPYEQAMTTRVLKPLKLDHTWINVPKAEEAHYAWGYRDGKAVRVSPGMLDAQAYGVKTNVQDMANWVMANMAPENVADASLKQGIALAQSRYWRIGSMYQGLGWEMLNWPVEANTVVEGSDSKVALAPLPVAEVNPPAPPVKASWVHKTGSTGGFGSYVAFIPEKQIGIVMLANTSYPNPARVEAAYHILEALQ
Chain of KPC-2 (Q9F663 25-293, looked up, species assumed): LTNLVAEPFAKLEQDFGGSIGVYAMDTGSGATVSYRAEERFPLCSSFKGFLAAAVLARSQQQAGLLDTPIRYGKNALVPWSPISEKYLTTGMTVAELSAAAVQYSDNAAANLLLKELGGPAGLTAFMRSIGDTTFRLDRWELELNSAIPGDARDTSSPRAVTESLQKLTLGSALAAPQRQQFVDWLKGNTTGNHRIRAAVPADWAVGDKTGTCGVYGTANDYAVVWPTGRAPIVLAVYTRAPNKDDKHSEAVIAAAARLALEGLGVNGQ
Chain of CTX-M-14 (Q9L5C7 29-291): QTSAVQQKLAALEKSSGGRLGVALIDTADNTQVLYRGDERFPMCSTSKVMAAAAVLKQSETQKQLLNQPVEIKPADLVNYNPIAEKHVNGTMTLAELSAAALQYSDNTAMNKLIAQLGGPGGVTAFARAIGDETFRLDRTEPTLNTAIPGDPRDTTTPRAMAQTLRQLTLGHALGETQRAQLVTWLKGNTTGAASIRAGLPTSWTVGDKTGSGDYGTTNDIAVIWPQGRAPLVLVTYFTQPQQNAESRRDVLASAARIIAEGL

SMILES	Ki (Pa AmpC) [nM]	Ki (OXA-48) [nM]	TIG MPC4 CTX-M-15 KP1009 (KP1009 (CTX-M-15) [1])	Ki (SHV-12) [nM]	TIG MPC4 SHV-5 ec308 (ec308 (SHV-5))	BPM MPC1 KP1004 KPC-2 (KP1004 (KPC-2) [2])	AZT MPC4 TEM-10 ec302 (ec302 (TEM-10) [3])	Ki (CTX-M-14) [nM]	BPM MPC1 OXA-48 KP1086 (KP1086 (OXA-48))	AZT MPC4 CTX-M-15 KP1009 (KP1009 (CTX-M-15) [4])	Ki (P99) [nM]	TIG MPC4 ECL1002 (ECL1002 [5])	AZT MPC4 CMY-6 EC1010 (EC1010 (CMY-6) [6])	TIG MPC4 SHV-12 KP1010 (KP1010 (SHV-12))	AZT MPC4 ECL1002 (ECL1002 [7])	AZT MPC4 KPC-2 KP1004 (KP1004 (KPC-2) [8])	TIG MPC4 CTX-M-14 KP1005 (KP1005 (CTX-M-14))	Ki (KPC-2) [nM]	TIG MPC4 CMY-6 EC1010 (EC1010 (CMY-6) [9])	TIG MPC4 TEM-10 ec302 (ec302 (TEM-10) [10])
CSCC(=O)N[C@H]1Cc2ccc(OCCO)c(C(=O)O)c2OB1O [Compound 20, (R)-2-hydroxy-7-(2-hydroxyethoxy)-3-(2-(methylthio)acetamido)-3,4-dihydro-2H-benzo[e][1,2]oxaborinine-8-carboxylic acid]	> 10	< 1	X (MIC of less than 1 μg/mL)	< 1	X (key: X: MIC of less than 1 μg/mL; Y: MIC of 1 μg/mL to 10 μg/mL; Z: MIC of greater than 10 μg/mL)	X (MIC of less than 1 μg/mL)	Y (MIC of 1 μg/mL to 10 μg/mL)	< 1	Z (MIC of greater than 10 μg/mL)	Y (key: X: MIC of less than 1 ng/mL; Y: MIC of 1 μg/mL to 10 μg/mL; Z: MIC of greater than 10 μg/mL)	> 10	X (MIC of less than 1 μg/mL)	Y (key: X: MIC of less than 1 ng/mL; Y: MIC of 1 μg/mL to 10 μg/mL; Z: MIC of greater than 10 μg/mL)	X (key: X: MIC of less than 1 μg/mL; Y: MIC of 1 μg/mL to 10 μg/mL; Z: MIC of greater than 10 μg/mL)	Y (MIC of 1 μg/mL to 10 μg/mL)	Y (MIC of 1 μg/mL to 10 μg/mL)	Y (MIC of 1 μg/mL to 10 μg/mL)	> 10	X (MIC of less than 1 μg/mL)	Z (key: X: MIC of less than 1 ng/mL; Y: MIC of 1 μg/mL to 10 μg/mL; Z: MIC of greater than 10 μg/mL)
CSCC(=O)N[C@H]1Cc2cc(F)c(F)c(C(=O)O)c2OB1O [Compound 36, (R)-6,7-difluoro-2-hydroxy-3-(2-(methylthio)acetamido)-3,4-dihydro-2H-benzo[e][1,2]oxaborinine-8-carboxylic acid]	> 10	< 1	X (MIC of less than 1 μg/mL)	< 1	X (key: X: MIC of less than 1 μg/mL; Y: MIC of 1 μg/mL to 10 μg/mL; Z: MIC of greater than 10 μg/mL)	X (MIC of less than 1 μg/mL)	Y (MIC of 1 μg/mL to 10 μg/mL)	< 1	Y (MIC of 1 μg/mL to 10 μg/mL)	–	> 10	X (MIC of less than 1 μg/mL)	Y (key: X: MIC of less than 1 ng/mL; Y: MIC of 1 μg/mL to 10 μg/mL; Z: MIC of greater than 10 μg/mL)	X (key: X: MIC of less than 1 μg/mL; Y: MIC of 1 μg/mL to 10 μg/mL; Z: MIC of greater than 10 μg/mL)	Y (MIC of 1 μg/mL to 10 μg/mL)	Y (MIC of 1 μg/mL to 10 μg/mL)	X (MIC of less than 1 μg/mL)	> 10	X (MIC of less than 1 μg/mL)	Y (key: X: MIC of less than 1 ng/mL; Y: MIC of 1 μg/mL to 10 μg/mL; Z: MIC of greater than 10 μg/mL)
